The MIC is the least concentration at which growth counts as inhibited.

≈ marks a conversion by molar mass, not a printed value. Bounds are passed on as bounds.

Holding throughout (experiment): Anti-bacterial activity (MIC), agar dilution
Format in all cases: cell-based

For test [1], the system named is Escher. coli NIHJ. The settings on record: Escherichia coli, 18 h, Escher. coli NIHJ; agar dilution, about 10^6 CFU/ml, 18 hours, 37° C.; read-out: MIC. The essentials: (§1)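 MIC values (μg/ml) come from agar dilution: strains grown overnight in Mueller-Hinton broth, diluted to roughly 10^6 CFU/ml, spotted on Mueller-Hinton agar containing twofold serial antibiotic dilutions, and read after 18 hours at 37° C.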
A general note: In agar dilution, organisms are placed on agar that contains the substance at set levels.

The test system of test [2] is Pseud. aeruginosa EP-01. The settings on record: Pseudomonas aeruginosa, EP01, 18 h, Pseud. aeruginosa EP-01; agar dilution, about 10^6 CFU/ml, 18 hours, 37° C.; read-out: MIC. The essentials:
as §1

The test system of test [3] is Kleb. pneumoniae EK-6. The settings on record: Klebsiella pneumoniae, EK6, 18 h, Kleb. pneumoniae EK-6; agar dilution, about 10^6 CFU/ml, 18 hours, 37° C.; read-out: MIC. The procedure, abridged: as §1
Test [4] deals with Ser. marcescens ES-75. The settings on record: Serratia marcescens, ES75, 18 h, Ser. marcescens ES-75; agar dilution, about 10^6 CFU/ml, 18 hours, 37° C.; read-out: MIC. The procedure, abridged: as §1
Test [5] deals with Morganella morganii EP-14. The conditions noted are these: Morganella morganii, EP14, 18 h, about 10^6 CFU/ml, 37° C., read-out: MIC. The procedure, abridged:
as §1

The test system of test [6] is Staph. aureus 209-P. The conditions noted are these: Staphylococcus aureus, 209P, 18 h, Staph. aureus 209-P; agar dilution, about 10^6 CFU/ml, 18 hours, 37° C.; read-out: MIC. The procedure, abridged:
as §1

`Nc1nc(/C(=N/OC(F)F)C(=O)N[C@@H]2C(=O)N3C(C(=O)[O-])=C(/C=C/C[N+]45CCN(CC4)CC5)CS[C@H]23)ns1` [Example 116]: the MIC in test [1] was no more than 0.025 µg/mL; in test [2] it was 1.56 µg/mL (≈ 2.73 µM); in test [3], no more than 0.025 µg/mL; in test [4], no more than 0.025 µg/mL; in test [5] it was no more than 0.025 µg/mL; in test [6], 0.2 µg/mL (≈ 0.351 µM).
In the case of `Nc1nc(/C(=N/OC(F)F)C(=O)N[C@@H]2C(=O)N3C(C(=O)[O-])=C(/C=C/C[N+](CCO)(CCO)CCO)CS[C@H]23)ns1` [Example 117], the minimal inhibitory concentration (MIC) in test [1] was 0.05 µg/mL (≈ 0.0823 µM); in test [2], 1.56 µg/mL (≈ 2.57 µM); in test [3], 0.05 µg/mL (≈ 0.0823 µM); in test [4], 0.2 µg/mL (≈ 0.329 µM); in test [5], no more than 0.025 µg/mL; in test [6], 0.4 µg/mL (≈ 0.658 µM).
For the compound `C[N+](C)(C/C=C/C1=C(C(=O)[O-])N2C(=O)[C@@H](NC(=O)/C(=N\OCF)c3nsc(N)n3)[C@H]2SC1)CC(N)=O` [Example 118, 7β-[2-(5-Amino-1,2,4-thiadiazol-3-yl)-(Z)-2-fluoromethoxyiminoacetamido]-3-[(E)-3-(carbamoylmethyldimethylammonio)-1-propen-1-yl]-3-cephem-4-carboxylate], the minimal inhibitory concentration (MIC) is no more than 0.025 µg/mL in test [1]; 0.4 µg/mL (≈ 0.737 µM) in test [2]; no more than 0.025 µg/mL in test [3]; 0.1 µg/mL (≈ 0.184 µM) in test [4]; no more than 0.025 µg/mL in test [5]; 0.2 µg/mL (≈ 0.369 µM) in test [6].
Take `C[N+]1(C/C=C/C2=C(C(=O)[O-])N3C(=O)[C@@H](NC(=O)/C(=N\OCF)c4nsc(N)n4)[C@H]3SC2)CCN(S(N)(=O)=O)CC1` [Example 119, 7β-[2-(5-Amino-1,2,4-thiadiazol-3-yl)-(Z)-2-fluoromethoxyiminoacetamido]-3-[(E)-3-(1-methyl-4-sulfamoyl-1-piperazinio)-1-propen-1-yl]-3-cephem-4-carboxylate]: the MIC was no more than 0.025 µg/mL in test [1]; 0.8 µg/mL (≈ 1.29 µM) in test [2]; no more than 0.025 µg/mL in test [3]; 0.05 µg/mL (≈ 0.0807 µM) in test [4]; no more than 0.025 µg/mL in test [5]; 0.2 µg/mL (≈ 0.323 µM) in test [6].
With `C[N+](C)(C/C=C/C1=C(C(=O)[O-])N2C(=O)[C@@H](NC(=O)/C(=N\OCF)c3nsc(N)n3)[C@H]2SC1)Cc1nnco1` [Example 120, 7β-[2-(5-Amino-1,2,4-thiadiazol-3-yl)-(Z)-2-fluoromethoxyiminoacetamido]-3-[(E)-3-[(1,3,4-oxadiazol-2-yl)methyldimethylammonio]-1-propen-1-yl]-3-cephem-4-carboxylate], the MIC in test [1] is no more than 0.025 µg/mL; in test [2] it was 0.8 µg/mL (≈ 1.41 µM); in test [3], no more than 0.025 µg/mL; in test [4], 0.05 µg/mL (≈ 0.0881 µM); in test [5], no more than 0.025 µg/mL; in test [6], 0.2 µg/mL (≈ 0.352 µM).
As to `C[N+]1(C/C=C/C2=C(C(=O)[O-])N3C(=O)[C@@H](NC(=O)/C(=N\OCF)c4nsc(N)n4)[C@H]3SC2)CCN(C=N)CC1.Cl` [Example 123, 7β-[2-(5-Amino-1,2,4-thiadiazol-3-yl)-(Z)-2-fluoromethoxyiminoacetamido]-3-[(E)-3-(1-methyl-4-formimidoyl-1-piperazinio)-1-propen-1-yl]-3-cephem-4-carboxylate hydrochloride], the MIC is 0.05 µg/mL in test [1]; 1.56 µg/mL in test [2]; 0.05 µg/mL in test [3]; 0.2 µg/mL in test [4]; 0.05 µg/mL in test [5]; 0.4 µg/mL in test [6].
For `C[N+]1(C/C=C/C2=C(C(=O)[O-])N3C(=O)[C@@H](NC(=O)/C(=N\OCF)c4nsc(N)n4)[C@H]3SC2)CCNCC1` [Example 124, 7β[2-(5-Amino-1,2,4-thiadiazol-3-yl)-(Z)-2-fluoromethoxyiminoacetamido]-3-[(E)-3-(1-methyl-1-piperazinio)-1-propen-1-yl]-3-cephem-4-carboxylate], the MIC was 0.05 µg/mL (≈ 0.0925 µM) in test [1]; 0.8 µg/mL (≈ 1.48 µM) in test [2]; no more than 0.025 µg/mL in test [3]; 0.1 µg/mL (≈ 0.185 µM) in test [4]; 0.05 µg/mL (≈ 0.0925 µM) in test [5]; 0.2 µg/mL (≈ 0.37 µM) in test [6].
Regarding `Nc1nc(/C(=N/OCF)C(=O)N[C@@H]2C(=O)N3C(C(=O)[O-])=C(/C=C/C[N+]45CCN(CC4)CC5)CS[C@H]23)ns1` [Example 129, 7β-[2-(5-Amino-1,2,4-thiadiazol-3-yl)-(Z)-2-fluoromethoxyiminoacetamido]-3-[(E)-3-(1,4-diazabicyclo[2,2,2]octan-1-io)-1-propen-1-yl]-3-cephem-4-carboxylate], the minimal inhibitory concentration (MIC) in test [1] is no more than 0.025 µg/mL; in test [2], 0.8 µg/mL (≈ 1.45 µM); in test [3], no more than 0.025 µg/mL; in test [4], 0.05 µg/mL (≈ 0.0905 µM); in test [5], no more than 0.025 µg/mL; in test [6], 0.2 µg/mL (≈ 0.362 µM).
Take `Nc1nc(/C(=N/OCF)C(=O)N[C@@H]2C(=O)N3C(C(=O)[O-])=C(/C=C/C[N+](CCO)(CCO)CCO)CS[C@H]23)ns1` [Example 143, 7β-[2-(5-Amino-1,2,4-thiadiazol-3-yl)-(Z)-2 fluoromethoxyiminoacetamido]-3-[(E)-3-[tris(2-hydroxyethyl)ammonio]-1-propen-1-yl]-3-cephem-4-carboxylate]: the MIC in test [1] is 0.05 µg/mL (≈ 0.0848 µM); in test [2], 0.8 µg/mL (≈ 1.36 µM); in test [3] it was no more than 0.025 µg/mL; in test [4], 0.1 µg/mL (≈ 0.17 µM); in test [5], no more than 0.025 µg/mL; in test [6], 0.2 µg/mL (≈ 0.339 µM).
Consider `C[N+](C/C=C/C1=C(C(=O)[O-])N2C(=O)[C@@H](NC(=O)/C(=N\OCF)c3nsc(N)n3)[C@H]2SC1)(CCO)CCO` [Example 144, 7β-[2-(5-Amino-1,2,4-thiadiazol-3-yl)-(Z)-2-fluoromethoxyiminoacetamido]-3-[(E)-3-[bis(2-hydroxyethyl)methylammonio]-1-propen-1-yl]-3-cephem-4-carboxylate], for which the MIC in test [1] is no more than 0.025 µg/mL; in test [2], 0.8 µg/mL (≈ 1.43 µM); in test [3], 0.05 µg/mL (≈ 0.0893 µM); in test [4] it was 0.1 µg/mL (≈ 0.179 µM); in test [5], no more than 0.025 µg/mL; in test [6] it was 0.2 µg/mL (≈ 0.357 µM).
With `N#CCO/N=C(\C(=O)N[C@@H]1C(=O)N2C(C(=O)[O-])=C(/C=C/C[N+](CCO)(CCO)CCO)CS[C@H]12)c1nsc(N)n1` [Example 147], the MIC came to 0.4 µg/mL (≈ 0.67 µM) in test [1]; 1.56 µg/mL (≈ 2.61 µM) in test [2]; 0.05 µg/mL (≈ 0.0838 µM) in test [3]; 0.2 µg/mL (≈ 0.335 µM) in test [4]; 0.05 µg/mL (≈ 0.0838 µM) in test [5]; 0.2 µg/mL (≈ 0.335 µM) in test [6].
On to `CC(O)C[N+](C)(C)C/C=C/C1=C(C(=O)[O-])N2C(=O)[C@@H](NC(=O)/C(=N\OCC#N)c3nsc(N)n3)[C@H]2SC1` (stereo partly drawn) [Example 149], for which the minimum inhibitory concentration (MIC) in test [1] turned out to be 0.1 µg/mL (≈ 0.182 µM); in test [2] it was 1.56 µg/mL (≈ 2.83 µM); in test [3], 0.05 µg/mL (≈ 0.0908 µM); in test [4] it was 0.05 µg/mL (≈ 0.0908 µM); in test [5], 0.05 µg/mL (≈ 0.0908 µM); in test [6], 0.2 µg/mL (≈ 0.363 µM).
In the case of `C[C@@H](O)[C@@H](C(N)=O)[N+](C)(C)C/C=C/C1=C(C(=O)[O-])N2C(=O)[C@@H](NC(=O)/C(=N\OCC#N)c3nsc(N)n3)[C@H]2SC1` [Example 153], the MIC was 0.2 µg/mL (≈ 0.337 µM) in test [1]; 1.56 µg/mL (≈ 2.63 µM) in test [2]; 0.1 µg/mL (≈ 0.168 µM) in test [3]; 0.1 µg/mL (≈ 0.168 µM) in test [4]; 0.1 µg/mL (≈ 0.168 µM) in test [5]; 0.4 µg/mL (≈ 0.674 µM) in test [6].
Consider `C[N+]1(C/C=C/C2=C(C(=O)[O-])N3C(=O)[C@@H](NC(=O)/C(=N\OCC#N)c4nsc(N)n4)[C@H]3SC2)CCN(S(N)(=O)=O)CC1` [Example 156], for which the minimal inhibitory concentration (MIC) was 0.1 µg/mL (≈ 0.16 µM) in test [1]; 0.8 µg/mL (≈ 1.28 µM) in test [2]; 0.1 µg/mL (≈ 0.16 µM) in test [3]; 0.1 µg/mL (≈ 0.16 µM) in test [4]; 0.1 µg/mL (≈ 0.16 µM) in test [5]; 0.4 µg/mL (≈ 0.638 µM) in test [6].
As for `N#CCO/N=C(\C(=O)N[C@@H]1C(=O)N2C(C(=O)[O-])=C(/C=C/C[N+]34CCN(CC3)CC4)CS[C@H]12)c1nsc(N)n1` [Example 157, 7β-[2-(5-Amino-1,2,4-thiadiazol-3-yl)-(Z)-2-cyanomethoxyiminoacetoamido]-3-[(E)-3-(1,4-diazabicyclo[2,2,2]octane-1-io)-1-propen-1-yl]-3-cephem-4-carboxylate], the MIC in test [1] came out at 0.1 µg/mL (≈ 0.179 µM); in test [2] it was 1.56 µg/mL (≈ 2.79 µM); in test [3], 0.1 µg/mL (≈ 0.179 µM); in test [4], 0.2 µg/mL (≈ 0.357 µM); in test [5], 0.1 µg/mL (≈ 0.179 µM); in test [6] it was 0.4 µg/mL (≈ 0.715 µM).
Turning to `N#CCO/N=C(\C(=O)N[C@@H]1C(=O)N2C(C(=O)[O-])=C(/C=C/C[n+]3ccc(C(N)=O)cc3)CS[C@H]12)c1nsc(N)n1` [Example 158, 7β-[2-(5-Amino-1,2,4-thiadiazol-3-yl)-(Z)-2-cyanomethoxyiminoacetoamido]-3-[(E)-3-(4-carbamoylpyridinio)-1-propen-1-yl]-3-cephem-4-carboxylate], the MIC in test [1] was no more than 0.025 µg/mL; in test [2], 1.56 µg/mL (≈ 2.74 µM); in test [3], no more than 0.025 µg/mL; in test [4], 0.1 µg/mL (≈ 0.176 µM); in test [5], 0.1 µg/mL (≈ 0.176 µM); in test [6], 0.2 µg/mL (≈ 0.351 µM).
Regarding `C[N+](C)(C/C=C/C1=C(C(=O)[O-])N2C(=O)[C@@H](NC(=O)/C(=N\OCC#N)c3nsc(N)n3)[C@H]2SC1)Cc1nnco1` [Example 159], the MIC was determined as 0.05 µg/mL (≈ 0.087 µM) in test [1]; 1.56 µg/mL (≈ 2.71 µM) in test [2]; 0.05 µg/mL (≈ 0.087 µM) in test [3]; 0.1 µg/mL (≈ 0.174 µM) in test [4]; 0.1 µg/mL (≈ 0.174 µM) in test [5]; 0.4 µg/mL (≈ 0.696 µM) in test [6].
